The values that follow come from patent publication US20260284214A1, “EXATECAN DERIVATIVE AND ANTIBODY-DRUG CONJUGATE THEREOF” (priority 2023, published 2026).

SMILES strings stand for the structures. Read-outs that look alike come from different tables or passages of the source.

Data set [1] has as its system KPL-4 (human breast cancer cells). The experiment in a line: Cell-proliferation inhibitory activity (CellTiter-Glo, 3 days). Format: cell-based. The note with it: KPL-4 cells. An excerpt: (§1) The experiment was intended to detect in-vitro inhibitory activities of the compounds of the present disclosure on NCI-N87 (human gastric cancer cells), KPL-4 (human breast cancer cells) or MDA-MB-468 (human breast cancer cells).
(§2) Human gastric cancer cells NCI-N87 (ATCC, article number: CRL-5822), human breast cancer cells MDA-MB-468 (Cell Bank of the Committee on Type Culture Collection, Chinese Academy of Sciences, article number: TCHu136) and human breast cancer cells KPL-4 (Nanjing Cobioer Biosciences Co., Ltd., article number: CBP60379) were washed with PBS, then the cells were digested with 0.25% Trypsin-EDTA trypsin for about 3-10 minutes, and the digestion was terminated with a complete cell culture medium. The cells were centrifuged at 1000 rpm for 5 minutes, the supernatant was discarded, and the cells were resuspended with a complete cell culture medium, counted by a cell counter, and adjusted to a required density. Each well was added with 90.0 μL of the cell suspension according to 3000 cells per well, and the cell plate was placed into a 5% CO2 cell incubator at 37° C. to incubate the cells overnight.
(§3) In the experiment, a DMSO control group, a positive control group and a test sample group were provided respectively, and the compound Dxd was used as a positive control compound. The cell plate was taken out of the incubator to observe a cell adhesion state, and after cell adhesion, each well was added with 10.00 μL of the sample (starting from a final concentration 10 μM, diluted 5 times, 9 concentrations), shaken gently, and then placed into an incubator to incubate the cells.
(§4) After incubation for 3 days, each well was added with a CellTiter-Glo™ (Promega, article number: G7572/G7571) working solution according to 100.0 μL/well and oscillated by a constant-temperature oscillator to lyse the cells, and 10 minutes later, the plate was read on a microplate reader.
(§5) A calculation formula of a cell-proliferation inhibition rate was: cell-proliferation inhibition rate=(1−RLUtest sample well/RLUDMSO control well)×100%.
(§6) Data analysis: a graph was made by GraphPad Prism 8.0 software with a Log value of a sample concentration as an abscissa and Inhibition % as an ordinate, and data were subjected to Nonlinear regression (curve fit) analysis to obtain an IC50 value of each test sample.
A general note: Cellular ATP, detected with luciferase, serves as a proxy for viable cell number.

In data set [2] the test system is MDA-MB-468 (human breast cancer cells). The description is as above. The format is cell-based. The conditions noted are these: MDA-MB-468 cells.
Description: as §1, §2, §3, §4, §5, §6

In data set [3] the test system is NCI-N87 (human gastric cancer cells). Described as above. The format is cell-based.
Description: as §1, §2, §3, §4, §5, §6

A short description of data set [4]: Metabolism stability test in liver microsomes. Format: in vitro ADME. The note with it: human liver microsomes; for CLint scaled / half-life / microsomal CLint: pH 7.4; for microsomal CLint: read-out: CLint(mic). How it is done:
The experiment was intended to detect metabolic stabilities of the compounds in the present disclosure in human liver microsomes.
• Human Liver Microsomes (Corning, Cat No. 452117)
Experimental method: each incubation system contained a phosphate buffer solution (PBS, pH 7.4), a liver microsomal protein, a to-be-tested sample (acetonitrile solution) and NADPH, incubated in water bath at 37° C., and the same volume of cold acetonitrile (comprising an internal standard) was added 0, 5, 15, 30, 45 and 60 minutes after reaction respectively to terminate the reaction. The sample solution was centrifuged, 80 μL of the supernatant was taken and 240 μL of ultrapure water was added, and the remaining amount of the prototype substrate was detected by LC-MS/MS method. The negative control was incubated with a human liver microsome NCF group (without NADPH).

The next data set concerns the target hERG potassium channel (Homo sapiens, UniProt Q12809). The experiment in a line: hERG experiment, manual patch clamp. The format is cell-based. The note with it: HEK-293 cells stably expressing hERG; for inhibition at 10 µM: human, read-out: hERG current inhibition rate % (Mean ± SE, n = 2). Here is the method:
Inhibitory effects of the compound of Example 2, the compound of Example 3 and Dxd on an hERG potassium channel were studied by a manual patch clamp technique (a gold standard of hERG safety evaluation), and the risk of ventricular repolarization toxicity caused was evaluated.
The weighed test sample was prepared into a 10 mM stock solution with DMSO, and then the stock solution of the test object was diluted into 3.33 mM intermediate dilution with DMSO. Then, 30 μL of the dilution was added into 10 mL of extracellular fluid to prepare 10 μM working solution, it was ensured that a DMSO content was 0.3%, then 50 μL of F68 was added to the extracellular fluid to enhance a solubility of the test object, and an F68 concentration was 0.5%. Solutions at all concentrations were subjected to ultrasound treatment for 20 minutes. The solubility of the sample was visually observed, and there was no visible precipitation in the 10 μM to-be-tested solution of the test object.
An HEK-293 cell line stably expressing the hERG potassium channel was adopted, and hERG potassium channel cells were purchased from Creacell Company (article number: A-0320). Cell culture method:
The HEK-293 cell line stably expressing the hERG potassium channel was cultured in a DMEM culture medium containing 10% fetal bovine serum and 0.8 mg/mL G418 at a culture temperature of 37° C. under a carbon dioxide concentration of 5%.
Cell passage: the old culture medium was removed, and the cells were washed once with PBS, then 1 mL of TrypLE™ Express solution was added, and the mixture was incubated at 37° C. for about 0.5 minutes. When the cells were separated from a dish bottom, about 5 mL of complete culture medium preheated at 37° C. was added. A cell suspension was gently blown with a straw to separate the aggregated cells. The cell suspension was transferred to a sterile centrifuge tube and centrifuged at 1000 rpm for 5 minutes to collect the cells. […]
An inhibitory effect of the test object on the hERG channel was detected by the manual patch clamp technique.
In general terms: hERG is a cardiac potassium channel; its block is linked to QT prolongation.

Chain of hERG potassium channel (Q12809 whole entry): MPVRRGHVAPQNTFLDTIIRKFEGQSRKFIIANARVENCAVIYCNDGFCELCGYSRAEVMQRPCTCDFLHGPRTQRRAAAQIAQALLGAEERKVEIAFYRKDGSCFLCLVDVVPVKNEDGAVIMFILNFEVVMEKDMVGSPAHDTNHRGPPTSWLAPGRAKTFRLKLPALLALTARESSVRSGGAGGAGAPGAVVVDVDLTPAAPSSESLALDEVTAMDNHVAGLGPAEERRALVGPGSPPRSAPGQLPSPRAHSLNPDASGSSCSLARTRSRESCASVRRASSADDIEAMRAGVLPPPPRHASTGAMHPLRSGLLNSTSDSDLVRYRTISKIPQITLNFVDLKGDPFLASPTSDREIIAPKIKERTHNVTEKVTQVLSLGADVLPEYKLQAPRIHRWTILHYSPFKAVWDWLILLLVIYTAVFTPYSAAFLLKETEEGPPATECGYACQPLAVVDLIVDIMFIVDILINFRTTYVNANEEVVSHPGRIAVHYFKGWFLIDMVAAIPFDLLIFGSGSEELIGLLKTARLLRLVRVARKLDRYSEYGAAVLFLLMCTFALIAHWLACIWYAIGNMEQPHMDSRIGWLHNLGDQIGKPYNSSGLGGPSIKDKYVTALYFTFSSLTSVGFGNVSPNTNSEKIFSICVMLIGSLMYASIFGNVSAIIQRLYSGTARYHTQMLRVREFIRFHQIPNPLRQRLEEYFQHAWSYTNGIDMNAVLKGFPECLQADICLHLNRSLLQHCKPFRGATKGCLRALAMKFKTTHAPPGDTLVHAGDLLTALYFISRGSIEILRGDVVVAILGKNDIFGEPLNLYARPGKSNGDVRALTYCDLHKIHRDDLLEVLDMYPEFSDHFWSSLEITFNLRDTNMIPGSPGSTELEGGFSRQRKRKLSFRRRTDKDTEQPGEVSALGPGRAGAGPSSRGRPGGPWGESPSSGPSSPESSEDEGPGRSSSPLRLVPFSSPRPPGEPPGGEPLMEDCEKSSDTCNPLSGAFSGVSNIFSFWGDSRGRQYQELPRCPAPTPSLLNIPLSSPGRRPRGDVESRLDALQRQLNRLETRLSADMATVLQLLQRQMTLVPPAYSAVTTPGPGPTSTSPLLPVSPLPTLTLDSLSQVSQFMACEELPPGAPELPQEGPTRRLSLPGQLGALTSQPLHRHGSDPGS

Turning to `C=CCN(CCO)C(=O)N[C@H]1CCc2c(C)c(F)cc3nc4c(c1c23)Cn1c-4cc2c(c1=O)COC(=O)[C@]2(O)CC` [Example 3, 1-allyl-3-((1S,9S)-9-ethyl-5-fluoro-9-hydroxy-4-methyl-10,13-dioxo-2,3,9,10,13,15-hexahydro-1H,12H-benzo[de]pyrano[3′,4′:6,7]indolizino[1,2-b]quinolin-1-yl)-1-(2-hydroxyethyl)urea], the IC50 (usually the concentration needed to halve the response being measured) in data set [1] (Homo sapiens, KPL4, 72 h) came to 8.82 nM; in data set [2] (Homo sapiens, 72 h), 0.99 nM; in data set [3] (Homo sapiens, 72 h), 6.39 nM. Further, in data set [4], the CLint scaled (in general, the capacity of the preparation to metabolise the compound, expressed as a volume cleared per time) stood at 1.42 L/h/kg. In addition, in data set [4] (NADPH, 37° C.), the half-life (commonly how long it takes for the measured level to halve) was found to be 0.877 h. In addition, the microsomal CLint in data set [4] was 26.4 µL/min/mg. The inhibition (as a rule, the change of the read-out against control, counted positive when it falls) at 10 µM on hERG potassium channel amounted to 15.8%.

Consider `CC[C@@]1(O)C(=O)OCc2c1cc1n(c2=O)Cc2c-1nc1cc(F)c(C)c3c1c2[C@@H](NC(=O)CO)CC3` [Dxd], for which the IC50 turned out to be 32.3 nM in data set [1] (Homo sapiens, KPL4, 72 h); 2.71 nM in data set [2] (Homo sapiens, 72 h); 22.6 nM in data set [3] (Homo sapiens, 72 h). The same compound displayed a CLint scaled in data set [4] of 0.738 L/h/kg. Moreover, the half-life in data set [4] (NADPH, 37° C.) came out at 1.69 h. Also, in data set [4], the microsomal CLint was 13.6 µL/min/mg. Besides, on hERG potassium channel, the inhibition at 10 µM turned out to be 10.3%.

`C#CCN(CCO)C(=O)N[C@H]1CCc2c(C)c(F)cc3nc4c(c1c23)Cn1c-4cc2c(c1=O)COC(=O)[C@]2(O)CC` [Example 2]: the IC50 amounted to 29.6 nM in data set [1], 2.41 nM in data set [2] and 11 nM in data set [3]. Also, in data set [4], the “CLint(liver)” value was determined as 1.2 L/h/kg. Further, in data set [4], the “CLint(mic)” value turned out to be 22.2 µL/min/mg. Besides, the “T1/2” value in data set [4] (NADPH, 37° C.) is 1.04 h. In addition, the “hERG current inhibition rate % (Mean ± SE, n = 2)” value on hERG potassium channel (10 μM) is given as 2.89% ± 1.86%.
